Literature values, collected in patent publication US20150098993A1, “COMPOSITIONS, PROCESS OF PREPARATION OF SAID COMPOSITIONS AND METHOD OF TREATING INFLAMMATORY DISEASES” (priority 2011, published 2015).

Key:
[1] = in vivo
[2] = molecular target: T1, AT1 receptor (Homo sapiens, UniProt P30556); settings: AT1 vs AT2 receptor
T1 sequence (P30556 1-359): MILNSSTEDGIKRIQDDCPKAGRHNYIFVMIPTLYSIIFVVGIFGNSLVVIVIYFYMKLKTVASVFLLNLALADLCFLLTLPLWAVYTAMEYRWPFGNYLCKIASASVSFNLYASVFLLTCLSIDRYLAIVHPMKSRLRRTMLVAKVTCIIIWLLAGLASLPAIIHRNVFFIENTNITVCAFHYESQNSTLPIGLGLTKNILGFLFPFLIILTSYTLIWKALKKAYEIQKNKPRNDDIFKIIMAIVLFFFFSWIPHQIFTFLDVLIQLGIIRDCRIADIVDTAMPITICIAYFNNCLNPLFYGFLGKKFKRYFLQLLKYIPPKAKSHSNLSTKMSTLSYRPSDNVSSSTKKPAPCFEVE

[3] = tested on: mice; settings: in mice
[4] = not given; remark: listed apart in the source
[5] = not given; remark: listed apart in the source
[6] = tested on: male BALB/c mice; settings: apremilast 5 and 25 mg/kg, dexamethasone 1 mg/kg; daily, oral; McCann
[7] = tested on: DBA/1 mice; settings: DBA/1 mice immunized with bCII/CFA; Dalbeth

In the case of CCCc1nc(C(C)(C)O)c(C(=O)OCc2oc(=O)oc2C)n1Cc1ccc(-c2ccccc2-c2nnn[nH]2)cc1 [(5-methyl-2-oxo-2H-1,3-dioxol-4-yl)methyl 4-(2-hydroxypropan-2-yl)-2-propyl-1-({4-[2-(2H-1,2,3,4-tetrazol-5-yl)phenyl]phenyl}methyl)-1H-imidazole-5-carboxylate], the “side effects of therapy” value [1] is listed as “dehydration (dry mouth, excessive thirst, muscle pain or cramps, nausea and vomiting, weakness), dizziness, low blood pressure, and slow or irregular heartbeat”, the solubility in methanol (methanol) is listed as “sparingly soluble” and the solubility in water (water) is listed as “practically insoluble”. The “greater affinity for the AT1 receptor than for the AT2 receptor” value [2] was > 12,500 fold, the maximum tolerated dose [3] was 25 mg/kg and the protein binding [4] was 99%. The T½ ([5]; in vivo) was 13 h, the half-life ([5]; in vivo) was “about 13 hours” and the “penetration of red blood cells” value ([5]; in vivo) was “does not penetrate red blood cells”.

In the case of CCOc1cc([C@@H](CS(C)(=O)=O)N2C(=O)c3cccc(NC(C)=O)c3C2=O)ccc1OC [Apremilast, (S)-N-{2-[1-(3-Ethoxy-4-methoxyphenyl)-2-methanesulfonylethyl]-1,3-dioxo-2,3-dihydro-1H-isoindol-4-yl}acetamide], the “arthritis severity, as measured by clinical score” value [6] is listed as “significantly suppressed arthritis severity”.

In the case of O=C(Nc1c(Cl)cncc1Cl)c1ccc(OC(F)F)c(OCC2CC2)c1 [CW304, 3-(cyclopropylmethoxy)-N-(3,5-dichloropyridin-4-yl)-4-(difluoromethoxy)benzamide], the “side effects of therapy” value [1] is listed as “gastrointestinal (GI) events including nausea, diarrhea, and weight loss”, the solubility in acetone (acetone) is listed as “freely soluble” and the solubility in ethanol (ethanol) is listed as “sparingly soluble”. For the same molecule, the maximum tolerated dose [3] was 2 mg/kg, the Cmax ([5]; in vivo) was 7040 ng/mL and the T½ ([5]; in vivo) was 12 to 14 h. The absolute bioavailability ([5]; in vivo) was 79%.

In the case of Cc1ccc(NC(=O)c2ccc(CN3CCN(C)CC3)cc2)cc1Nc1nccc(-c2cccnc2)n1 [Imatinib, N-(4-methyl-3-{[4-(pyridin-3-yl)pyrmidin-2-yl]amino}phenyl)-4-[(4-methylpiperazin-1-yl)methyl]benzamide], the Tmax ([5]; in vivo) is listed as 1.2 h and the “maximum levels achieved after dosing (time)” value ([5]; in vivo) is listed as 2 to 4 h.

In the case of CCCc1nc(C(C)(C)O)c(C(=O)OCc2oc(=O)oc2C)n1Cc1ccc(-c2ccccc2-c2nnn[nH]2)cc1 [Olmesartan medoxomil], the absolute bioavailability ([5]; in vivo) is given as “about 26%”.

For CCOC(=O)[C@H](CCc1ccccc1)N[C@@H](C)C(=O)N1Cc2ccccc2C[C@H]1C(=O)O [Quinapril, (3S)-2-[(2S)-2-{[(2S)-1-ethoxy-1-oxo-4-phenylbutan-2-yl]amino}propanoyl]-1,2,3,4-tetrahydroisoquinoline-3-carboxylic acid], the “solubility in aqueous solvents” value (aqueous solvents) is given as “freely soluble”, the maximum tolerated dose [3] is given as 25 mg/kg and the protein binding [4] is given as “about 97%”. For the same molecule, the “time of peak plasma concentration” value ([5]; following oral administration) was “within one hour”, the T½ ([5]; in vivo) was 13 h and the extent of absorption ([5]; in vivo) was “at least 60%”. The half-life ([5]; in vivo) was 2 h, the “half-life, prolonged terminal phase” value ([5]; terminal phase) was 25 h and the “severity of collagen-induced arthritis” value [7] was “reduced the severity”.
